Experimental data published in patent US8058264B2, “Pharmaceutical compositions comprising CB1 cannabinoid receptor antagonists and potassium channel openers for the treatment of obesity and related conditions” (Abbott Products GmbH, priority 2004, dated 2011).

What was measured:
[1] = tested on: rat perifused pancreatic islets; assay: Insulin secretion in rat perifused pancreatic islets, simple screen at 11 mM glucose; format: cell-based; conditions: for effect on insulin secretion: 0-30 and 30-60 min
Description: (§1) Animals: Male Wistar rats in the weight range 175-200 g were group housed in standard animal cages at a temperature of 21±2° C. and humidity of 55±10%. Animals were maintained on a 12 h light-dark cycle (lights on 06.00-18.00 h) with free access to standard rodent diet (B&K Universal Ltd standard rat and mouse diet (BK 001P), Beekay Feeds, B&K Universal Ltd, Hull, East Riding of Yorkshire) and tap water. The rats were accustomed to these conditions for at least one week before experimentation.
(§2) Experimental procedures: After the rats were sacrificed, the branch of the bile duct leading to the liver and the duodenal end of the duct in the pancreas were clamped and the pancreas distended by injection of ice-cold 0.9 mg/ml collagenase solution into the bile duct. The pancreas were then removed and incubated statically for 10-12 min at 37° C. Following the incubation, 10 ml of cold buffer was added and the suspension shaken vigorously by hand for 1 min. The islets were allowed to settle for 5 min on ice and washed three times using ice-cold buffer. Well formed and good sized islets from 3 rats were hand-picked (under a low power microscope) and pooled and a final selection of islet transferred to the perifusion apparatus. Oxygenated (95% O2/5% CO2) Gey & Gey buffer containing 1 mg/ml bovine serum albumin and 4 mM glucose were used throughout the experiment unless otherwise stated (see Dickinson et al. Eur J Pharmacol 1997;339:69-76 for further details).
(§3) On each day, two experiments were performed in parallel in 2 identical, independent sets of perifusion apparatus each consisting of sufficient number of chambers. Each chamber was loaded with 20 hand-picked islets. Islets were perifused for an initial 30 min period in media containing 4 mM glucose. Perifusate was then collected at 2 min intervals for the remainder of the experiment.
Perifusate samples were then pooled to create 3 samples per chamber as follows: Baseline (4 mM): Samples 1-5 (first 10 minutes); 0-30 minutes (11 mM glucose): Samples 6-21; 30-60 minutes (11 mM glucose): Samples 22-36.
Perifusate fractions were stored at −75° C. until required for insulin assay. Insulin content of fractions were assayed using a 96-well ELISA assay (Mercodia). Initial insulin assays were performed in triplicate on three pooled fractions from each chamber (18 samples per experiment, 108 samples in total for 6 experiments).

[2] = target: T1, hamster SUR1 (Cricetus cricetus, UniProt Q09427); assay: Competitive binding to sulfonylurea and KCO sites of SUR1 ([3H]glibenclamide displacement, COS-cell membranes); conditions: SUR1 versus SUR2 selectivity, in words
T1 construct: expressed in transfected cells; host or cells: COS-1 cells, transient transfection (pcDNA vector), membrane preparation
Description: Competitive binding experiments were performed to characterize the affinity of the test compounds for the binding sites for sulfonylureas and KATP channel openers (=KCOs) on hamster SUR1. To assess the affinity for the sulfonylurea site membranes from COS-cells transiently expressing hamster SUR1 were incubated in the presence of [^3H]glibenclamide with increasing concentrations of test compounds. […] Per curve 9-15 distinct concentrations were tested covering the relevant range. All measurements were repeated at least 5 times in independent experiments.
[^3H]glibenclamide (specific activity 51 Ci mmol^−1) was obtained from NEN (Dreieich, Germany). If suitable, stock solutions were prepared in dimethylsulfoxide with a final solvent concentration in the media below 1%.
SUR- or Kir6.x isoforms were used either subcloned in the pcDNA (hamster SUR1, mouse Kir6.2) or pCMV vector (rat SUR2A, SUR2B).
For transfection the cells were incubated 4 hours in a Tris-buffered salt solution containing DNA (5-10 μg/ml) plus DEAE-dextran (1 mg/ml), 2 min in HEPES-buffered salt solution plus dimethylsulfoxide (10%) and 4 hours in DMEM-HG plus chloroquine (100 μM). Cells were then returned to DMEM-HG plus 10% FCS. […] For binding experiments resuspended membranes (final protein concentration 5-50 μg/ml) were incubated in “Tris-buffer” (50 mM, pH 7.4) containing either [^3H]glibenclamide (final concentration 0.3 nM or 3 nM and nonspecific binding defined by 100 nM or 1 μM glibenclamide for SUR1 or SUR2Y1205S-isoforms, respectively) or [^3H]P1075 (final concentration 3 nM, nonspecific binding defined by 100 μM pinacidil) and increasing concentrations of the test compounds. […] Incubations were carried out for 1 h at room temperature and were terminated by rapid filtration through Whatman GF/B filters.
The inhibition constant (Ki value) of the test substances was calculated from the respective IC50 value, and was stated as the negative logarithmised value thereof (pKi).

[3] = tested on: male sugar rats [Ico: ZUCKER-fa/fa (fatty)]; assay: 2 week chronic administration: body weight gain in male sugar rats (ZUCKER-fa/fa); format: in vivo, rat; conditions: for decrease of body weight in comparison to vehicle-treated rats: day 14
Description: Studies were performed in male sugar rats [[Ico: ZUCKER-fa/fa (fatty) (Orl] (Charles River France) weighing initially 400 to 490 g. Animals were housed two or three in a plastic cage in a temperature (20-24° C.), relative humidity (45-65%) and 12-h light/dark cycle (light 7:00 a.m. to 7:00 p.m.)—controlled room for 6 days before being used. All animals had free access to filtered tap water and standard pelleted laboratory chow (U.A.R., Villemois-son-sur-Orge, France). Animals were individually identified on the tail.
At the end of the acclimatization period, animals were individually housed in wire-topped plastic cages. A pre-weighed quantity of food and water were placed on the roof grids. Each rat was acclimated to the handling and dosing procedure the 3 days preceding the start of treatment. Water and food intake was measured during the 24 h that followed dosing procedure to establish baseline food and water intake for each animal. Thereafter, the rats were randomly assigned to either vehicle or drug treatment groups.
Between 9:00-10:00 a.m. on the day of study, the animals were injected p.o. with either vehicle or differing doses of test compounds in a volume of 2 ml/kg each day for 14 consecutive days. During the 5-day post-treatment period, vehicle was given to all groups.
Daily food and water intake was determined per cage throughout the 14-day treatment period and the 5-day post-treatment period. Individual body weights were checked daily for the subsequent treatment and post-treatment periods. Data were collected before each dosing procedure.

[4] = tested on: rat perifused pancreatic islets; assay: Insulin secretion in rat perifused pancreatic islets, in depth investigation (Phase 1 and Phase 2); format: cell-based
Description: as §1, with “001 P),” for “001P),”
as §2, with “procedures: Three rats (sufficient for” for “procedures: After”, “the isolation of enough islets to allow for 2 perifusion experiments per day)” for “the rats”
as §3, with “was” for “was then”, “experiment. After the first 10 min of the experiment (to collect baseline insulin values), the media in each chamber were switched to one containing the relevant drug concentration/vehicle/glucose concentration and perifusate collected for a further 62 min to produce a total of 36 fractions for each chamber.” for “experiment.”
Experiments were organised to evaluate firstly (Phase I) the effect of Compounds at a single concentration on glucose-stimulated insulin secretion (two independent sets of experiments) and secondly (Phase II), determination of the dose-dependent effect of these compounds to inhibit insulin secretion at 11 mM glucose (three independent sets of experiments).
Perifusate fractions were stored at −75° C. until required for insulin assay. Insulin content of fractions were assayed using a 96-well ELISA assay (Mercodia). Initial insulin assays were performed on only every third fraction (72 assays per experiment).

[5] = tested on: glucose-stimulated insulin release; assay: Inhibition of glucose-stimulated insulin release (NN-414 versus diazoxide); format: cell-based

T1 sequence (Q09427 whole entry): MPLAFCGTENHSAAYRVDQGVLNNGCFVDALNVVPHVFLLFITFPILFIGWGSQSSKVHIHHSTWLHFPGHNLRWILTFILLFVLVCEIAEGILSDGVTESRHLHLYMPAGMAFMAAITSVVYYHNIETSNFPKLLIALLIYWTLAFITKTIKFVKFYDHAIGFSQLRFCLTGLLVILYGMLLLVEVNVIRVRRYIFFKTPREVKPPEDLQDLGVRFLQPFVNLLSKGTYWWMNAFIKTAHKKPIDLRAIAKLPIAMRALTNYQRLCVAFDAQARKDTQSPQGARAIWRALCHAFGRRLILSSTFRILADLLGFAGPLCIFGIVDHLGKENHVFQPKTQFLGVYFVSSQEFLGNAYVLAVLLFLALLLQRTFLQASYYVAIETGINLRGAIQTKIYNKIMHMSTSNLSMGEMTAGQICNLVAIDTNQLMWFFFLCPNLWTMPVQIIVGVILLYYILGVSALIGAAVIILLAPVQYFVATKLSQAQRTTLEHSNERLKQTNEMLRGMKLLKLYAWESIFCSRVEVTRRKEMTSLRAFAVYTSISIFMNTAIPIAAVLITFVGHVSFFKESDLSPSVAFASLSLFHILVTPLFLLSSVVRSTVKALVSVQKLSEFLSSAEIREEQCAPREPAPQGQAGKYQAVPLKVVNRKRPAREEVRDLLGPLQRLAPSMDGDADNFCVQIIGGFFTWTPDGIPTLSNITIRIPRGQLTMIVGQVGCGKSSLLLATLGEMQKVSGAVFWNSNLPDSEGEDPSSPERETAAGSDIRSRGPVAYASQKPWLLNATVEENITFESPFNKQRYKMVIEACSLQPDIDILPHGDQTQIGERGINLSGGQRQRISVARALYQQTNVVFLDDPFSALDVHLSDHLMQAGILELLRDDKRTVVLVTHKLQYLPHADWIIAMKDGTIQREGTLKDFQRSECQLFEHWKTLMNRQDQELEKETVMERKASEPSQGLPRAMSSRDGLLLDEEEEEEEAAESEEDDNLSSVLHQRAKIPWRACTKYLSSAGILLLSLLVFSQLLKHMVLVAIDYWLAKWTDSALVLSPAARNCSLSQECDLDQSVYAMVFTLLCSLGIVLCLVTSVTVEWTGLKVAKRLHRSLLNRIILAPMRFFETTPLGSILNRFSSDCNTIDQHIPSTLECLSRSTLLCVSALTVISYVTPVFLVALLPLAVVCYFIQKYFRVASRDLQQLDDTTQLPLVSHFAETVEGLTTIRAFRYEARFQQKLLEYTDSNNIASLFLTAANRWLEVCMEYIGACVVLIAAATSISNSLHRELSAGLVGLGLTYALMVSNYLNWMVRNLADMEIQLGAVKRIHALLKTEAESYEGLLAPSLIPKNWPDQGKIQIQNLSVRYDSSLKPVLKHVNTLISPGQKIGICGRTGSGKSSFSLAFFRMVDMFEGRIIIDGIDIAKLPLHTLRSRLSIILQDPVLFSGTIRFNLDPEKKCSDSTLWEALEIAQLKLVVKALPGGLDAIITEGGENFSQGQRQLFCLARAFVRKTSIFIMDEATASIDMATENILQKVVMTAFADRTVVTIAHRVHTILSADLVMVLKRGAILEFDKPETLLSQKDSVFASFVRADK

With `CNC(=NS(=O)(=O)c1ccc(C(F)(F)F)cc1)N1CC(c2cccnc2)C(c2ccc(Cl)cc2)=N1` (stereo not drawn) [Compound 4, 3-(4-chlorophenyl)-N-methyl-4-pyridin-3-yl-N′-{[4-(trifluoromethyl)phenyl]sulfonyl}-4,5-dihydro-1H-pyrazole-1-carboximidamide] the “amount of inhibition of insulin secretion compared with diazoxide” value [1] was “notably greater than diazoxide at 30-60 min”, the “effect on insulin secretion” value [1] was “significantly inhibited insulin secretion at both 0-30 and 30-60 min” and the “pki (SUR1) compared with pki (SUR2)” value [2] was “pki (SUR1) larger than pki (SUR2)”.

With `CNC(=NS(=O)(=O)N1CCCCC1)N1C[C@H](c2ccccc2)C(c2ccc(Cl)cc2)=N1` [Compound 3, (4S)-3-(4-chlorophenyl)-N-methyl-4-phenyl-N′-(piperidin-1-ylsulfonyl)-4,5-dihydro-1H-pyrazole-1-carboximidamide] the “amount of inhibition of insulin secretion compared with diazoxide” value [1] was “notably greater than diazoxide at 30-60 min” and the “effect on insulin secretion” value [1] was “significantly inhibited insulin secretion at both 0-30 and 30-60 min”.

In the case of `CNC(=NS(=O)(=O)c1ccc(Cl)cc1)N1C[C@H](c2ccccc2)C(c2ccc(Cl)cc2)=N1` [Compound A, (4S)-3-(4-chlorophenyl)-N′-[(4-chlorophenyl)sulfonyl]-N-methyl-4-phenyl-4,5-dihydro-1H-pyrazole-1-carboximidamide], the “pki (SUR1) compared with pki (SUR2)” value [2] was “pki (SUR1) larger than pki (SUR2)”, the “decrease of body weight in comparison to vehicle-treated rats” value (shortened to “decrease of body weight in comparison”) ([3]; 3 mg/kg p.o. daily) was 5.3% and the “decrease of body weight in comparison” value ([3]; 10 mg/kg p.o. daily) was 6.7%. The “decrease of body weight in comparison” value ([3]; 30 mg/kg p.o. daily) was 5.9%, the “effect on body weight during treatment” value ([3]; 3, 10 and 30 mg/kg p.o., 14 days) was “sustained non dose-dependent reduction in body weight at all doses administered” and the “body weight on interruption of drug treatment” value ([3]; 5-day post-treatment period) was “progressively returned towards control levels”. The “effect on insulin secretion at 4 mM glucose” value ([4]; Phase 1, 10 μM, 4 mM glucose) was “no effect of compound A on insulin secretion at 4 mM glucose in two experiments and a slight effect to stimulate insulin secretion in one experiment”, the “effect on insulin secretion at 8 mM glucose” value ([4]; Phase 1, 10 μM, 8 mM glucose) was “completely inhibited insulin secretion at 8 mM glucose in two of the experiments and moderately inhibited insulin secretion in the third experiment” and the “effect on insulin secretion at 16 mM glucose” value ([4]; Phase 1, 10 μM, 16 mM glucose) was “moderate effect to inhibit insulin secretion in one experiment but only a slight effect in the other experiment”. For the same molecule, the “dose dependency of effect on mean insulin secretion” value ([4]; Phase 2, 11 mM glucose) was “dose-dependent effects to inhibit mean insulin secretion”, the “doses at which inhibition of mean insulin secretion attained statistical significance” value ([4]; Phase 2, 11 mM glucose) was 3 µM and 10 µM and the “effect on time-dependent insulin secretion” value ([4]; Phase 2, 11 mM glucose, 10 μM) was “clearly more effective than the comparable (10 μM) dose of diazoxide”. For the same molecule, the “reduction of mean insulin secretion” value ([4]; Phase 2, 11 mM glucose, 10 μM) was 74% and the “dose dependency of effect on time-dependent insulin secretion” value ([4]; Phase 2, 11 mM glucose, four doses) was “dose-dependent effects to block insulin secretion”.

`CN[C@@H](Cc1c[nH]c2ccccc12)C(=O)N1CC(c2ccccc2)C(c2ccc(Cl)cc2)=N1` (stereo partly drawn) [Compound 1, (2S)-1-[3-(4-chlorophenyl)-4-phenyl-4,5-dihydro-1H-pyrazol-1-yl]-3-(1H-indol-3-yl)-N-methyl-1-oxopropan-2-amine] was tested, and the “effect on insulin secretion” value [1] was “significantly inhibited insulin secretion” and the “pki (SUR1) compared with pki (SUR2)” value [2] was “pki (SUR1) larger than pki (SUR2)”.

`CN(C)CCNC(=NS(=O)(=O)N1CCCCC1)N1CC(c2ccccc2)C(c2ccc(Cl)cc2)=N1` (stereo not drawn) [Compound 2, 3-(4-chlorophenyl)-N-[2-(dimethylamino)ethyl]-4-phenyl-N′-(piperidin-1-ylsulfonyl)-4,5-dihydro-1H-pyrazole-1-carboximidamide] was tested, and the “effect on insulin secretion” value [1] was “significantly inhibited insulin secretion (only at 0-30 min for compound 2)”.

`CC1=NS(=O)(=O)c2cc(Cl)ccc2N1` [Diazoxide, diazoxide, reference compound] was tested, and the “effect on time-dependent insulin secretion” value ([4]; Phase 2, 11 mM glucose, 10 μM) was “only a partial inhibition”, the “reduction of mean insulin secretion” value ([4]; Phase 2, 11 mM glucose, 10 μM) was 50% and the “effect on time-dependent insulin secretion” value ([4]; Phase 2, 11 mM glucose, 100 μM) was “almost completely blocked the stimulatory effect of 11 mM glucose”. The “reduction of mean insulin secretion” value ([4]; Phase 2, 11 mM glucose, 100 μM) was 94%.

For `CC1(NC2=Nc3cc(Cl)sc3S(=O)(=O)N2)CC1` [NN-414], the “potency to inhibit glucose-stimulated insulin release relative to diazoxide” value [5] was 100 times.
